Measurements: PubChem BioAssay (NCI)
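Results reflect a 48-hour exposure of cells in 96-well plates to compound at five concentrations. TGI: concentration producing complete growth inhibition.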

Tests used:
Experiment in all cases: DTP human tumour cell line panel, 48 h
MDA-N = test system: MDA-N
SW-620 colon = test system: SW-620 colon
HL-60(TB) leukemia = test system: HL-60(TB) leukemia
NCI-H23 lung = test system: NCI-H23 lung
HCT-15 colon = test system: HCT-15 colon
SF-295 CNS = test system: SF-295 CNS
RXF 393 renal = test system: RXF 393 renal
HOP-92 NSCLC = test system: HOP-92 NSCLC
SK-MEL-28 melanoma = test system: SK-MEL-28 melanoma
A498 renal = test system: A498 renal

Compound	TGI (MDA-N) [µM]	TGI (SW-620 colon) [µM]	TGI (HL-60(TB) leukemia) [µM]	TGI (NCI-H23 lung) [µM]	TGI (HCT-15 colon) [µM]	TGI (SF-295 CNS) [µM]	TGI (RXF 393 renal) [µM]	TGI (HOP-92 NSCLC) [µM]	TGI (SK-MEL-28 melanoma) [µM]	TGI (A498 renal) [µM]
Cc1ccc(O)c(C2=NNC(c3cccc(Cl)c3)C2)c1 (stereo not drawn)	88.1	> 100	> 100	> 100	29.3	> 100	64.6	81.7		
Nc1ncc2c(n1)-c1ccccc1OC2N1CCOCC1 (stereo not drawn)	> 100	> 100	> 100	> 100	> 100	> 100	> 100	> 100	> 100	
Cc1nn(C(=O)c2ccc(Cl)cc2)c2c1C(c1ccc(Cl)cc1)SC(N)=N2 (stereo not drawn)	> 10	> 10	> 10	> 10	> 10	> 10	> 10	> 10	> 10	
CC(=O)N1N=C(c2ccc3ccccc3c2O)CC1c1ccc(N(C)C)cc1 (stereo not drawn)	> 100	> 100		> 100	> 100	> 100	> 100	> 100	> 100	> 100
C=CCN1C(=O)CS/C1=N\NC(=O)CSc1nc2ccccc2c(=O)n1CC	> 100	> 100	> 100	> 100	> 100	> 100	> 100		> 100	> 100
CC(C)CC1NC(=O)CCC(NC(=O)C(Cc2ccc(O)cc2)NC(=O)OCc2ccccc2)C(=O)NC(Cc2ccccc2)C(=O)NC(Cc2ccccc2)NC1=O (stereo not drawn)	> 100	> 100	> 100	> 100	> 100	> 100	> 100	> 100	> 100	
Cn1c(N)c(/C=C/C(=O)Oc2ccccc2)c(=O)n(C)c1=O	> 100	> 100	> 100	> 100	> 100	93.6	> 100	93	> 100	> 100
O=C1c2c(O)cccc2Cc2cc(CO)cc(O)c21	11.5	> 100	3.1	6.06	11.3	5.85		4.21	27.3	17.8
O=C(O)CCC(NC(=O)c1ccc(Oc2nc3ccccc3nc2-c2ccccc2)cc1)C(=O)O (stereo not drawn)	> 100	> 100	> 100	> 100	> 100	> 100	> 100	> 100	> 100	> 100
c1cc2c3ccsc3c3sccc3c2s1	> 100	> 100	> 100	> 100	> 100	> 100	> 100	> 100	> 100	> 100
N#CC(C#N)=Cn1c(=S)[nH]c2ccc([N+](=O)[O-])cc21	> 100	> 100	> 100	> 100		> 100	> 100	> 100	> 100	> 100
NC(=O)NC(=O)c1cccc(NC(=O)CCl)c1	1.08	18.9	1.97	8.14	9.73	7.71	4.3	15.2	> 62.2	6.39
CC12CCC(=O)[C@@]1(C)CCCC2O (stereo partly drawn)	> 100	> 100	> 100	> 100	> 100	> 100			> 100	
CN1N=C(c2ccccc2)c2cc(Cl)ccc2N=C1N/N=C/c1ccc(N(C)C)cc1	> 100	> 100	> 100	> 100	> 100	> 100	> 100		> 100	
CC(C)(C)OC(=O)C1/C(=C/CBr)CN1C(=O)OC(C)(C)C (stereo not drawn)	29.7	19.4	7.5	28.8	23.3	30.5		31.8	46.9	31.8
O=Cc1ccc(-c2ccc(S(=O)(=O)O)cc2)o1	> 100	> 100	> 100	> 100	> 100	> 100	> 100		> 100	> 100
CCOC(=O)c1nc2cc(F)cc(F)c2[nH]c1=O	> 100	> 100	> 100	> 100	> 100	> 100		> 100	> 100	> 100
CCOC(=O)c1csc(-c2cn(C)c3c2C(=O)C(OC)=CC3=O)n1	> 50.1	> 100	> 100	> 56.7	> 100	96.9	71.8	> 100	> 100	73.1
